Experiments:
[1] = target: Smurf-1 (Homo sapiens, UniProt Q9HCE7); experiment: HECT E3 ligase autoubiquitinylation TR-FRET assay, Smurf-1; type: biochemical; settings: 45 min incubation, 8-point dose-response
Text: (§1) To determine the HECT E3 ligase selectivity of the compounds, a panel of biochemical HECT E3 ligase autoubiquitinylation assays was employed (Smurf-1, Smurf-2, WWP1, WWP2, ITCH, Nedd4, Nedd4L and E6AP). The conjugation of ubiquitin to a protein substrate is a multistep process. In an initial ATP-requiring step, a thioester bond is formed between the carboxyl terminus of ubiquitin and an internal cystein residue of the ubiquitin-activating enzyme (E1). Activated ubiquitin is then transferred to a specific cystein residue of an ubiquitin-conjugating enzyme (E2). E2s donate ubiquitin to a HECT E3 ligase (E3) from which it is transferred to the substrate protein. HECT E3 ligases can auto-ubiquitinylate. This event is detected in the TR-FRET (Time-Resolved Fluorescence Resonance Energy Transfer) assay used in this panel. The reaction mix contains E1, E2, tagged-E3, biotin-conjugated ubiquitin, the compound and ATP in a suitable buffer and is incubated for 45 minutes to allow auto-ubiquitinylation of the E3 ligase. To measure the extent of ubiquitinylated E3 ligase by TR-FRET, the donor fluorophore Europium cryptate (Eu3+ cryptate), conjugated to streptavidin which subsequently binds to biotinylated ubiquitin, and the modified allophycocyanin XL665 (HTRF® primary acceptor fluorophore) coupled to a tag-specific antibody (HA, His or GST), which recognizes the respective E3 ligase fusion proteins, are added after the reaction is complete. When these two fluorophores are brought together by a biomolecular interaction (in this case ubiquitinylation of the E3 ligase), a portion of the energy captured by the Cryptate during excitation is released through fluorescence emission at 620 nm, while the remaining energy is transferred to XL665. This energy is then released by XL665 as specific fluorescence at 665 nm. Light at 665 nm is emitted only through FRET with Europium.
(§2) Test and reference compounds are prepared at 180× [final] in 90% DMSO, and diluted 1:3 in 90% DMSO.
(§3) For the biochemical assay panel, 50 nl of the test compounds, reference compounds and buffer/DMSO control are transferred to the respective wells of a 384-well white GREINER “SMALL VOLUME” PS plate. The assay panel is run at room temperature on a Biomek FX liquid handling workstation. To the assay plates containing 50 nl compound or control solutions in 90% DMSO, 4.5 ul of E3 ligase solution were added per well, followed by 4.5 ul of the pre-incubated E1/E2/Ub mix or the pre-diluted ubiquitin (LOW control). Plates are shaken vigorously after each addition. In this assay the compound concentrations range from 3 nM to 10 uM in an 8-point dose-response curve.
(§4) After 45 min of incubation the ubiquitinylation reactions were stopped by adding 4.5 ul 2 mM NEM, immediately followed by 4.5 ul of a detection solution including the XL665-labeled antibody and the streptavidin-coupled europium to give a total volume of 18 ul. After an incubation time of 45 min in the dark, the plates are transferred into the Pherastar fluorescence reader to measure the TR-FRET signal.

[2] = target: Smurf-2 (Homo sapiens, UniProt Q9HAU4); experiment: HECT E3 ligase autoubiquitinylation TR-FRET assay, Smurf-2; type: biochemical; settings: 45 min incubation, 8-point dose-response
Chain of Smurf-2 (Q9HAU4 whole entry, species assumed): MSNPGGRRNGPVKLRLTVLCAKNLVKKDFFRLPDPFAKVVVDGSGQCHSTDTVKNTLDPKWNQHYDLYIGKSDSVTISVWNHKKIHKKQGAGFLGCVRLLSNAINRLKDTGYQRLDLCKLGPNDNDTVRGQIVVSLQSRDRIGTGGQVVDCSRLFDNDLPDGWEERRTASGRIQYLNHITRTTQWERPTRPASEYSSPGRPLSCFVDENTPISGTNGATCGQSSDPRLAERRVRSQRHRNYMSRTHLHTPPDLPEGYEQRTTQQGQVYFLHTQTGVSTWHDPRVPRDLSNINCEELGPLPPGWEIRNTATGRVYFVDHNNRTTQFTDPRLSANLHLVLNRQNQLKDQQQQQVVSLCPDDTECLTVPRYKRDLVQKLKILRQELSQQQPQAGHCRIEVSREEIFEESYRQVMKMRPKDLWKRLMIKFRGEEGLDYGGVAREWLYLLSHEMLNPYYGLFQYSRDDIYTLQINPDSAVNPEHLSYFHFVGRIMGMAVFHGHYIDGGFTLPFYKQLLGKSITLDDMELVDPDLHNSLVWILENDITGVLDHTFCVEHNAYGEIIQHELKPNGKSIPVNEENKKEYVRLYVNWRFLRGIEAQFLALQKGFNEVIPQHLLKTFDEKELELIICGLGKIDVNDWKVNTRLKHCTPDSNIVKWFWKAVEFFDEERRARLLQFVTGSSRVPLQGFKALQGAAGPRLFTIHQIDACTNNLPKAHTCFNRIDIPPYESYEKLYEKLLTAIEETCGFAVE
Text: as §1, §2, §3, §4

Chain of Smurf-1 (Q9HCE7 whole entry): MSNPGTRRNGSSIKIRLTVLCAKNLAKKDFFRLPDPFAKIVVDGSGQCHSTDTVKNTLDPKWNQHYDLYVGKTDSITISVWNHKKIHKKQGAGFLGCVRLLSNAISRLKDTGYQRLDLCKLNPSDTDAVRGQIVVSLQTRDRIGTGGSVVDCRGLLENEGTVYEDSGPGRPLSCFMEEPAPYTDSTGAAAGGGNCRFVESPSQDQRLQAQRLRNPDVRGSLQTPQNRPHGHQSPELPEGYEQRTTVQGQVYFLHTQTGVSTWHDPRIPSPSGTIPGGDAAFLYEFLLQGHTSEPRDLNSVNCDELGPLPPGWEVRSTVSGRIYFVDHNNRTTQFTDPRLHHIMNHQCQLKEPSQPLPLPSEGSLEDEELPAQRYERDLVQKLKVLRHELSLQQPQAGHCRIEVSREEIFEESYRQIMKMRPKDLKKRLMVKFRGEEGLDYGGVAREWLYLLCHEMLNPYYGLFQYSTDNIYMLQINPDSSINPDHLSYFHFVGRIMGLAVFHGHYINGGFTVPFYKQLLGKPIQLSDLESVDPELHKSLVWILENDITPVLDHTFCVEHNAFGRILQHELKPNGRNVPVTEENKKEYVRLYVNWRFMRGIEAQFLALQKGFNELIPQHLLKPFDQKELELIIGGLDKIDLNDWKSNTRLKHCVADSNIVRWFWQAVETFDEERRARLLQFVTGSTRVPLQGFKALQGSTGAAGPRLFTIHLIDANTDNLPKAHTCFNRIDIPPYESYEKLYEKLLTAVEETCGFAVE

Compound | IC50 [1] | IC50 [2]
Cc1c(C(=O)Nc2c(C)n(C)n(C3CCCCC3)c2=O)noc1-c1ccc(Cl)cc1 [Example 049, 5-(4-Chlorophenyl)-N-(2-cyclohexyl-1,5-dimethyl-3-oxo-2,3-dihydro-1H-pyrazol-4-yl)-4-methylisoxazole-3-carboxamide] | 23.5 nM | 6750 nM
COc1ccccc1-c1onc(C(=O)Nc2c(C)n(C)n(C3CCCCC3)c2=O)c1C [Example 051, N-(2-Cyclohexyl-1,5-dimethyl-3-oxo-2,3-dihydro-1H-pyrazol-4-yl)-5-(2-methoxyphenyl)-4-methylisoxazole-3-carboxamide] | 560 nM | > 20100 nM
Cc1c(C(=O)Nc2c(C)n(C)n(C3CCCCC3)c2=O)noc1-c1ccc2occc2c1 [Example 054, 5-(Benzofuran-5-yl)-N-(2-cyclohexyl-1,5-dimethyl-3-oxo-2,3-dihydro-1H-pyrazol-4-yl)-4-methylisoxazole-3-carboxamide] | 10.8 nM | 5000 nM
Cc1c(C(=O)Nc2c(C)n(C)n(C3CCCCC3)c2=O)noc1-c1cccc(F)c1F [Example 055, N-(2-Cyclohexyl-1,5-dimethyl-3-oxo-2,3-dihydro-1H-pyrazol-4-yl)-5-(2,3-difluorophenyl)-4-methylisoxazole-3-carboxamide] | 109 nM | > 20200 nM
Cc1c(C(=O)Nc2c(C)n(C)n(C3CCCCC3)c2=O)noc1-c1ccc(Cl)cc1F [Example 057, 5-(4-Chloro-2-fluorophenyl)-N-(2-cyclohexyl-1,5-dimethyl-3-oxo-2,3-dihydro-1H-pyrazol-4-yl)-4-methylisoxazole-3-carboxamide] | 24 nM | 7500 nM
Cc1c(C(=O)Nc2c(C)n(C)n(-c3ccccc3F)c2=O)noc1-c1ccc2c(c1)CCO2 [Example 062, 5-(2,3-Dihydrobenzofuran-5-yl)-N-(2-(2-fluorophenyl)-1,5-dimethyl-3-oxo-2,3-dihydro-1H-pyrazol-4-yl)-4-methylisoxazole-3-carboxamide] | 965 nM | > 20200 nM
Cc1c(C(=O)Nc2c(C)n(C)n(C3CCCCC3)c2=O)noc1-c1ccc(Cl)cc1C1CC1 [Example 069, 5-(4-Chloro-2-cyclopropylphenyl)-N-(2-cyclohexyl-1,5-dimethyl-3-oxo-2,3-dihydro-1H-pyrazol-4-yl)-4-methylisoxazole-3-carboxamide] | 5 nM | 3200 nM
COc1c(C)cccc1-c1onc(C(=O)Nc2c(C)n(C)n(C3CCCCC3)c2=O)c1C [Example 070, N-(2-Cyclohexyl-1 ,5-dimethyl-3-oxo-2,3-dihydro-1H-pyrazol-4-yl)-5-(2-methoxy-3-methylphenyl)-4-methylisoxazole-3-carboxamide] | 33 nM | 17800 nM
Cc1c(C(=O)Nc2c(C)n(C)n(C3CCCCC3)c2=O)noc1-c1ccc(OCC2CC2)cc1Cl [Example 072, 5-(2-Chloro-4-(cyclopropylmethoxy)phenyl)-N-(2-cyclohexyl-1,5-dimethyl-3-oxo-2,3-dihydro-1H-pyrazol-4-yl)-4-methylisoxazole-3-carboxamide] | 98 nM | > 20200 nM
Cc1c(C(=O)Nc2c(C)n(C)n(C3CCCCC3)c2=O)noc1-c1cccc2c1OCCC2 [Example 075, 5-(Chroman-8-yl)-N-(2-cyclohexyl-1,5-dimethyl-3-oxo-2,3-dihydro-1H-pyrazol-4-yl)-4-methyl isoxazole-3-carboxamide] | 895 nM | > 20200 nM
Cc1cc(C)c(-c2onc(C(=O)Nc3c(C)n(C)n(-c4ccccc4F)c3=O)c2C)c(C)c1 [Example 083, N-(2-(2-fluorophenyl)-1,5-dimethyl-3-oxo-2,3-dihydro-1H-pyrazol-4-yl)-5-mesityl-4-methylisoxazole-3-carboxamide] | 2300 nM | > 20200 nM
COc1ccccc1-c1onc(C(=O)Nc2c(C)n(C)n(-c3ccccc3F)c2=O)c1C [Example 084, N-(2-(2-fluorophenyl)-1,5-dimethyl-3-oxo-2,3-dihydro-1H-pyrazol-4-yl)-5-(2-methoxyphenyl)-4-methylisoxazole-3-carboxamide] | 7150 nM | > 20200 nM
COc1ccc(-c2onc(C(=O)Nc3c(C)n(C)n(C4CCCCC4)c3=O)c2C2CC2)c(C(F)(F)F)c1 [Example 085, N-(2-Cyclohexyl-1,5-dimethyl-3-oxo-2,3-dihydro-1H-pyrazol-4-yl)-4-cyclopropyl-5-(4-methoxy-2-(trifluoromethyl)phenyl)isoxazole-3-carboxamide] | 50.5 nM | > 20200 nM
COc1ccc(-c2onc(C(=O)Nc3c(C)n(C)n(C4CCCCC4)c3=O)c2C2CC2)c(F)c1 [Example 086, N-(2-Cyclohexyl-1,5-dimethyl-3-oxo-2,3-dihydro-1H-pyrazol-4-yl)-4-cyclopropyl-5-(2-fluoro-4-methoxyphenyl) isoxazole-3-carboxamide] | 260 nM | > 20200 nM

Source: US20170088545A1, “CARBOXAMIDE INHIBITORS” (Norvartis AG, priority 2014, published 2017)
